According to patent publication US9944608B2, “Herbicidal pyridazinone derivatives” (Syngenta Participations AG, priority 2014, dated 2018):

Assays:
Test in all cases: B1 Post-emergence efficacy, glasshouse pot test
Format in all cases: in vivo
Conditions in all cases: post-emergence application, 1000 g/ha, evaluated after 13 days
[1] = tested on: Amaranthus retoflexus (AMARE)
Experimental: (§1) B1 Post-Emergence Efficacy Seeds of a variety of test species are sown in standard soil in pots:—Solanum nigrum (SOLNI), Amaranthus retoflexus (AMARE), Setaria faberi (SETFA), Alopecurus myosuroides (ALOMY), Echinochloa crus-galli (ECHCG), Ipomoea hederacea (IPOHE), Lolium perenne (LOLPE). After 8 days cultivation (post-emergence) under controlled conditions in a glasshouse (at 24/16° C., day/night; 14 hours light; 65% humidity), the plants are sprayed with an aqueous spray solution derived from the formulation of the technical active ingredient in acetone/water (50:50) solution containing 0.5% Tween 20 (polyoxyethelyene sorbitan monolaurate, CAS RN 9005-64-5). Compounds are applied at 1000 g/ha. The test plants are then grown in a glasshouse under controlled conditions in a glasshouse (at 24/16° C., day/night; 14 hours light; 65% humidity) and watered twice daily. After 13 days, the test is evaluated for the percentage damage caused to the plant. The biological activities are assessed on a five point scale (5=80-100%; 4=60-79%; 3=40-59%; 2=20-39%; 1=0-19%). A blank value in the table is indicative that the compound was not tested on that species.

[2] = tested on: Echinochloa crus-galli (ECHCG)
Experimental: as §1

[3] = tested on: Ipomoea hederacea (IPOHE)
Experimental: as §1

[4] = tested on: Lolium perenne (LOLPE)
Experimental: as §1

[5] = tested on: Setaria faberi (SETFA)
Experimental: as §1

[6] = tested on: Solanum nigrum (SOLNI)
Experimental: as §1

Compound	AMARE: percentage damage caused to the plant (five point scale) [1]	ECHCG: percentage damage caused to the plant (five point scale) [2]	IPOHE: percentage damage caused to the plant (five point scale) [3]	LOLPE: percentage damage caused to the plant (five point scale) [4]	SETFA: percentage damage caused to the plant (five point scale) [5]	SOLNI: percentage damage caused to the plant (five point scale) [6]
Cc1ccc(Cl)c(OCc2ccccc2)c1-c1c(O)c(C)nn(C)c1=O [Compound 1.076]	2 (2=20-39%)	5 (5=80-100%)	5 (5=80-100%)	4 (4=60-79%)	5 (5=80-100%)	5 (5=80-100%)
Cc1nn(C2CC2)c(=O)c(-c2c(Cl)ccc(Cl)c2OCc2ccccc2)c1O [Compound 1.041]	5 (5=80-100%)	5 (5=80-100%)	5 (5=80-100%)	4 (4=60-79%)	5 (5=80-100%)	5 (5=80-100%)
Cn1nc(S(C)(=O)=O)c(O)c(-c2c(F)ccc(Cl)c2OCc2ccccc2)c1=O [Compound 1.079]	1 (1=0-19%)	1 (1=0-19%)	5 (5=80-100%)	1 (1=0-19%)	1 (1=0-19%)	5 (5=80-100%)
CCc1nn(C)c(=O)c(-c2c(Cl)ccc(Cl)c2OCc2ccccc2)c1O [Compound 1.007]	5 (5=80-100%)	5 (5=80-100%)	5 (5=80-100%)	4 (4=60-79%)	5 (5=80-100%)	5 (5=80-100%)
Cc1nn(C)c(=O)c(-c2c(F)ccc(F)c2OCc2ccccc2)c1O [Compound 1.016]	5 (5=80-100%)	5 (5=80-100%)	5 (5=80-100%)	4 (4=60-79%)	5 (5=80-100%)	5 (5=80-100%)
Cn1nc(C(F)(F)F)c(O)c(-c2c(F)ccc(Cl)c2OCc2ccccc2)c1=O [Compound 1.074]	5 (5=80-100%)	5 (5=80-100%)	5 (5=80-100%)	5 (5=80-100%)	5 (5=80-100%)	5 (5=80-100%)
Cc1nn(C)c(=O)c(-c2cccc(Cl)c2OCc2ccccc2)c1O [Compound 1.003]	4 (4=60-79%)	5 (5=80-100%)	5 (5=80-100%)	5 (5=80-100%)	3 (3=40-59%)	5 (5=80-100%)
Cn1nc(C2CC2)c(O)c(-c2c(F)ccc(Cl)c2OCc2ccccc2)c1=O [Compound 1.012]	5 (5=80-100%)	5 (5=80-100%)	5 (5=80-100%)	5 (5=80-100%)	5 (5=80-100%)	5 (5=80-100%)
CN(C)c1nn(C)c(=O)c(-c2c(Cl)ccc(Cl)c2OCc2ccccc2)c1O [Compound 1.087]	5 (5=80-100%)	5 (5=80-100%)	5 (5=80-100%)	5 (5=80-100%)	5 (5=80-100%)	5 (5=80-100%)
CCc1nn(C)c(=O)c(-c2c(F)ccc(Cl)c2OCc2ccccc2)c1O [Compound 1.010]	5 (5=80-100%)	4 (4=60-79%)	5 (5=80-100%)	4 (4=60-79%)	3 (3=40-59%)	5 (5=80-100%)
CN(C)c1nn(C)c(=O)c(-c2c(F)ccc(Cl)c2OCc2ccccc2)c1O [Compound 1.085]	5 (5=80-100%)	4 (4=60-79%)	5 (5=80-100%)	5 (5=80-100%)	3 (3=40-59%)	5 (5=80-100%)
Cc1nn(C)c(=O)c(-c2ccccc2OCc2ccccc2)c1O [Compound 1.002]	4 (4=60-79%)	1 (1=0-19%)	1 (1=0-19%)	1 (1=0-19%)	1 (1=0-19%)	5 (5=80-100%)
Cn1nc([S+](C)[O-])c(O)c(-c2c(Cl)ccc(Cl)c2OCc2ccccc2)c1=O (stereo not drawn) [Compound 1.083]	1 (1=0-19%)	1 (1=0-19%)	5 (5=80-100%)	2 (2=20-39%)	3 (3=40-59%)	5 (5=80-100%)
Cn1nc(N)c(O)c(-c2c(F)ccc(Cl)c2OCc2ccccc2)c1=O [Compound 1.078]	3 (3=40-59%)	2 (2=20-39%)	4 (4=60-79%)	1 (1=0-19%)	3 (3=40-59%)	5 (5=80-100%)
Cc1nn(C2CC2)c(=O)c(-c2c(F)ccc(Cl)c2OCc2ccccc2)c1O [Compound 1.044]	5 (5=80-100%)	5 (5=80-100%)	5 (5=80-100%)	5 (5=80-100%)	5 (5=80-100%)	5 (5=80-100%)
Cn1nc([S+](C)[O-])c(O)c(-c2c(F)ccc(Cl)c2OCc2ccccc2)c1=O (stereo not drawn) [Compound 1.080]	2 (2=20-39%)	1 (1=0-19%)	5 (5=80-100%)	2 (2=20-39%)	1 (1=0-19%)	5 (5=80-100%)
Cn1nc(C(F)(F)F)c(O)c(-c2c(Cl)ccc(Cl)c2OCc2ccccc2)c1=O [Compound 1.075]	4 (4=60-79%)	5 (5=80-100%)	5 (5=80-100%)	4 (4=60-79%)	5 (5=80-100%)	5 (5=80-100%)
